Common to all, as to experiment: DTP human tumour cell line panel, 48 h
In assay [1] the test system is T-47D breast.
The test system of assay [2] is DU-145 prostate.
Assay [3] relates to MOLT-4 leukemia.
For assay [4], the system named is HCT-15 colon.
Assay [5] relates to NCI-H23 lung.
The subject of assay [6] is SR leukemia.
Assay [7] has as its system RXF 393 renal.
In assay [8] the test system is PC-3 prostate.
For assay [9], the system named is SK-MEL-28 melanoma.
Assay [10] relates to UACC-62 melanoma.

Each structure is given as a SMILES string. Where “and” joins values, the source holds several entries; their conditions need not be identical. Equal values may be shown once.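 Grown in 96-well plates, cells were treated for 48 hours with each compound at five concentrations. Insufficient inhibition: endpoint recorded as highest concentration tested. Abbreviation: GI50, concentration required for 50% inhibition of growth. At the TGI there is no net growth.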

As usually defined, the GI50 is the concentration that inhibits growth by half. As a reminder, the TGI is the concentration giving total growth inhibition.

As to `CCOC(=O)c1sc(-c2ccc(OS(=O)(=O)c3ccc(Br)s3)c(C=O)c2)nc1C`, the GI50 in assay [1] was 2.77 µM; in assay [2], 6.81 µM; in assay [3], 2.73 µM; in assay [4], 2.61 µM; in [5], 3.37 µM; in assay [6] it was 3.14 µM. Further, the GI50 in assay [7] was 2.81 µM; in [8], 2.97 µM; in [9], 11.4 µM; in assay [10], 2.21 µM. Also, the TGI in assay [1] was 12.1 µM; in [2], 24.8 µM; in assay [3], 8.3 µM; in assay [4] it was 7.79 µM; in [5] it was 13.7 µM; in assay [6], over 100 µM. The TGI was found to be 13.5 µM in assay [7], 11 µM in assay [8], 33.4 µM in assay [9] and 5.97 µM in [10].
Consider `O=C(CC(c1ccccc1)c1c(O)c2ccccc2oc1=O)c1ccccc1` (configuration not stated), for which the TGI in assay [1], in [2], in assay [3], in assay [4], in [5] and in assay [6] was over 100 µM throughout. Moreover, the TGI in assay [7], in assay [8], in assay [9] and in assay [10] was over 100 µM in each case.
`[Cl][Hg][Cl]`: the GI50 in assay [1] was 5.18 µM; in assay [2], 20.1 µM; in assay [3] it was 4.08 µM; in assay [4] it was 15.8 µM; in assay [5], 17.2 µM; in assay [6], 1.72 µM. Besides, the GI50 in assay [7] was 18.2 µM; in assay [8] it was 17.3 µM; in [9], 15.3 µM; in [10] it was 13.2 µM. For the same compound, the TGI is 30.2 µM in assay [1]; 34.8 µM in [2]; over 37.7 µM in assay [3]; 30.1 µM in assay [4]; 40.5 µM in [5]; 32.6 µM in assay [7]. Also, the TGI in assay [8] was 32 µM; in assay [9], 29.8 µM; in assay [10], 27.3 µM.
Regarding `CC(C)(C)C(=O)c1c(C(F)(F)F)n([O-])c2ccccc2[n+]1=O`, the GI50 in [1] was 0.597 µM; in [2], 0.356 µM; in assay [3], 0.157 µM; in assay [4] it was 0.365 µM; in assay [5] it was 1.17 µM; in assay [7], 0.868 µM. The GI50 in assay [8] was 0.817 µM; in assay [9], 1.13 µM; in assay [10], 1.33 µM. Further, the TGI in assay [1] turned out to be 1.78 µM; in assay [2], 0.892 µM; in assay [3], 0.853 µM; in assay [4], 0.914 µM; in assay [5] it was 2.39 µM; in [6], 0.209 µM. For the same compound, the TGI in assay [7] is 2.28 µM; in [8], 2.38 µM; in assay [9] it was 6.12 µM; in [10], 2.66 µM.
In the case of `COc1ccc(S(=O)(=O)N2CC(C)(C)CN(S(=O)(=O)c3ccc(OC)cc3)C2C(=O)NO)cc1`, the GI50 in assay [1] is over 20 µM; in assay [2], over 20 µM; in [3] it was over 11 µM; in [4] it was over 20 µM; in assay [5], over 20 µM; in assay [6], 13.6 µM. The GI50 in assay [7] is over 14.2 µM; in assay [8] it was over 20 µM; in assay [9], over 20 µM; in assay [10] it was over 19.2 µM. The TGI in [1], in assay [2], in [3], in [4], in assay [5] and in assay [6] was over 20 µM each time. For the same compound, the TGI in assay [7], in assay [8], in [9] and in assay [10] was over 20 µM throughout.
In the case of `CN(C)CCCOc1ccc(-c2ccc3ncc4c(c3c2)n(C2CCOCC2)c(=O)n4C)cn1`, the GI50 in assay [1] was 0.212 µM; in assay [2] it was 2.37 µM; in assay [3], 1.51 µM; in assay [4] it was 3.08 µM; in [5], 2.53 µM; in [6], 3.01 µM. In addition, the GI50 in assay [7] was 0.838 µM; in [8] it was 0.861 µM; in [9], 1.97 µM; in assay [10], 2.73 µM. For the same compound, the TGI in assay [1] was 2.92 µM; in assay [2], 17.2 µM; in [3] it was 14.4 µM; in assay [4], 18 µM; in assay [5] it was 22.1 µM; in assay [6], 15.6 µM. The TGI in [7] amounted to 4.85 µM; in [8], 13.8 µM; in [9], 13 µM; in assay [10], 13.8 µM.
`COc1cc(C#Cc2ccc(=O)oc2C#Cc2ccccc2)cc(OC)c1OC`: the GI50 in assay [1] was 2.27 µM; in assay [2], 3.12 µM; in assay [3], 3.43 µM; in assay [4] it was 2.31 µM; in [5], 2.59 µM; in assay [6], 1.84 µM. The GI50 is 2.21 µM in assay [7], 4.13 µM in assay [8], 2.64 µM in [9] and 3.89 µM in assay [10]. For the same compound, the TGI in [1] is 6.22 µM; in assay [2], 10.7 µM; in assay [3] it was over 45.1 µM; in [4], 5.1 µM; in assay [5], 7.63 µM; in assay [6], over 31.3 µM. Moreover, the TGI amounted to 4.34 µM in assay [7], 16.3 µM in [8], 7.22 µM in assay [9] and 9.18 µM in [10].
With `O=C(CO[N+](=O)[O-])Nc1ccc(C(=O)/C=C/c2ccc(Cl)cc2)cc1`, the GI50 is 3.26 µM in assay [1]; 3.41 µM in assay [2]; 4.68 µM in assay [3]; 2.03 µM in assay [4]; 4.55 µM in assay [5]; 3.65 µM in assay [6]. The GI50 in assay [7] was 4.82 µM; in [8] it was 2.74 µM; in [9], 4.96 µM; in assay [10], 2.76 µM. Besides, the TGI was 14.9 µM in assay [1]; 13.5 µM in [2]; 69.4 µM in assay [3]; 6.53 µM in assay [4]; 22.1 µM in assay [5]; over 100 µM in assay [6]. For the same compound, the TGI in assay [7] turned out to be 17.8 µM; in assay [8] it was 14.8 µM; in [9], 18.1 µM; in assay [10], 11 µM.
For the compound `OCc1ccc(-c2ccc(-c3ccc(CO)o3)[se]2)o1`, the GI50 in assay [1] was 15.7 µM; in assay [2], over 94 µM; in assay [3] it was 41.2 µM; in assay [4] it was over 100 µM; in assay [5], over 100 µM; in assay [6], over 69.2 µM. For the same compound, the GI50 in assay [7] is over 100 µM; in [8] it was 69.1 µM; in assay [9] it was over 100 µM; in assay [10], 8.72 µM. Further, the total growth inhibition concentration (TGI) in assay [1], in assay [2], in [3], in assay [4], in assay [5] and in assay [6] was over 100 µM in each case. For the same compound, the TGI in [7], in [8], in assay [9] and in [10] was over 100 µM throughout.
For `O=c1c(Oc2ccc(F)cc2F)cc2cnc(NC3CCOCC3)nc2n1CCCO`, the GI50 in assay [1], in [2], in assay [3], in [4], in assay [5] and in assay [6] was over 25 µM each time. In addition, the GI50 in assay [7], in [8], in assay [9] and in assay [10] was over 25 µM each time. Also, the TGI in assay [1], in assay [2], in assay [3], in assay [4], in assay [5] and in [6] was over 25 µM each time. Moreover, the TGI in [7], in assay [8], in [9] and in assay [10] was over 25 µM each time.
As to `CC(C)CCC(=O)c1ccoc1`, the TGI in [1], in [2], in [3], in [4], in assay [5] and in [6] was over 100 µM in each case. The TGI in [7], in [8], in assay [9] and in [10] was over 100 µM each time.
With `FC(F)(F)c1nc2nc(Cl)c(Cl)nc2n1CCCN1CCOCC1`, the TGI in assay [1] was over 100 µM; in [2] it was 63.2 µM; in [3] it was 48.6 µM; in [4], over 100 µM; in assay [5] it was over 100 µM; in [6], 33.9 µM. In addition, the TGI was 68.1 µM in assay [7], over 100 µM in [8], over 100 µM in assay [9] and over 100 µM in [10].
`CCc1cccc(C)c1NC(=O)c1sc2nc3c(cc2c1N)CCCCC3`: the GI50 in assay [1] is 4.65 µM; in assay [2], 3.28 µM; in assay [3], 4.56 µM; in [4] it was 3.17 µM; in [5], 4.67 µM; in [6] it was 2.27 µM. The GI50 was 1.6 µM in assay [7], 3.19 µM in assay [8], 12 µM in [9] and 3.31 µM in [10]. Further, the concentration for total growth inhibition (TGI) in [1] is over 100 µM; in [2], over 100 µM; in [3], over 100 µM; in assay [4] it was over 100 µM; in assay [5], over 100 µM; in assay [6] it was 54 µM. The TGI in assay [7] is 6.4 µM; in assay [8] it was over 100 µM; in [9] it was over 100 µM; in [10], over 100 µM.
In the case of `CC[N+](CC)=c1sc2c(s1)C(c1ccc(Cl)cc1)Oc1ccc(Cl)cc1-2` (configuration not stated), the GI50 was 1.67 µM in assay [1]; 3.32 µM in assay [2]; 2.16 µM in assay [3]; 7.13 µM in assay [4]; 1.07 µM in [5]; 2.68 µM in [6]. Moreover, the GI50 is 2.26 µM in [7], 1.38 µM in assay [8], 1.32 µM in [9] and 1.65 µM in assay [10]. Moreover, the TGI worked out at 6.39 µM in assay [1]; 10.6 µM in [2]; 6.41 µM in assay [3]; 21.5 µM in [4]; 6.79 µM in assay [5]; 7.15 µM in assay [6]. Besides, the TGI in assay [7] stood at 4.86 µM; in assay [8] it was 3.28 µM; in assay [9] it was 2.82 µM; in assay [10] it was 4.14 µM.
`Cc1cnc(NC(=O)Nc2cc(Br)c(C)cc2OC[C@@H]2CNCCO2)cn1`: the GI50 in assay [1] was 2.88 µM and 7.86 µM; in assay [2] it was 2.08 µM and 0.659 µM; in [3] it was 0.445 µM and 0.368 µM; in assay [4], 1.65 µM and 2.38 µM; in assay [5] it was 0.466 µM and 0.548 µM; in assay [6], 0.306 µM and 0.196 µM. Besides, the GI50 is 0.564 µM and 0.219 µM in [7]; 5.77 µM and 3.73 µM in assay [8]; 2.21 µM and 2.44 µM in assay [9]; 1.19 µM in [10]. In addition, the TGI in assay [1] was > 10 µM and 22.3 µM; in [2], > 10 µM and 11.5 µM; in assay [3], > 10 µM and 3.9 µM; in assay [4], > 10 µM and 12.8 µM; in [5], > 10 µM and 9.42 µM; in assay [6], 1.66 µM and 3.72 µM. For the same compound, the TGI in assay [8] is > 10 µM and 16.4 µM; in [9], 6.65 µM and 6.88 µM; in assay [10], 6.82 µM.
For `Cc1nc(SCC(=O)Nc2nc(-c3ccc(Cl)cc3)cs2)n(Nc2ccccc2)c1C`, the GI50 in assay [1] is 1.4 µM; in assay [2], 5.64 µM; in [3], 2.51 µM; in assay [4], 5.74 µM; in [5] it was 1.85 µM; in assay [6], 3.81 µM. In addition, the GI50 in [7] was 2.98 µM; in [8] it was 2.34 µM; in assay [9], 10.1 µM; in [10], 3.09 µM. Besides, the TGI is 5.24 µM in assay [1]; 18.7 µM in assay [2]; 9.94 µM in assay [3]; 23.3 µM in [4]; 6.02 µM in assay [5]; over 100 µM in assay [6]. Besides, the TGI came out at 7.33 µM in assay [7], 11 µM in assay [8], 24.6 µM in [9] and 16.1 µM in assay [10].

(Values after PubChem BioAssay (NCI).)
